Results reported in PMC9995496, “A screen for MeCP2-TBL1 interaction inhibitors using a luminescence-based assay” (Scientific Reports, 2023).
Where a name gives a salt, the structure may show the parent alone. Read-outs that look alike come from different tables or passages of the source.

Tested on: PRKACA-PRKAR2A interaction (SmBiT-PRKACA / LgBiT-PRKAR2A), protein kinase A
Design: NanoLuc complementation counter-screen in cell extract, PRKACA with PRKAR2A, loss of luminescence, detects NanoLuc interference
Conditions: counter-screen for NanoLuc interference, 0.5 h, 20 µM, inhibitor

SMILES | Inh (PKA) | Inh (PKA) (Inh (PKA))
CCn1c(C(=O)N(C2CC2)C2CC2)cc2c3c(ncn3C)c(Nc3cc(C)n(C)n3)nc21 [UM0141734:01, BMS-911543] | 4.215% | –
NC(=O)c1ccc(I)c([N+](=O)[O-])c1 [UM0141736:01, Iniparib (BSI-201)] | 1.39% | –
O=C(COc1cccc2c(=O)[nH]ccc12)c1ccccc1 [UM0141740:01, UPF 1069] | 15.76% | –
CC(C)N(CCCNC(=O)Nc1ccc(C(C)(C)C)cc1)C[C@H]1O[C@@H](n2cc(Br)c3c(N)ncnc32)[C@H](O)[C@@H]1O [UM0141743:01, SGC 0946] | 3.83% | –
CCN(CC)C(=O)/C(C#N)=C/c1cc(O)c(O)c([N+](=O)[O-])c1 [UM0141744:01, Entacapone] | 34.9% | –
CC(C)N(CCCNC(=O)Nc1ccc(C(C)(C)C)cc1)C[C@H]1O[C@@H](n2ccc3c(N)ncnc32)[C@H](O)[C@@H]1O [UM0141745:01, EPZ004777] | 1.222% | –
Cc1cc(C)c(CNC(=O)c2cc(-c3ccc(CN4CCOCC4)cc3)cc3c2cnn3C2CCCC2)c(=O)[nH]1 [UM0141746:01, EPZ005687] | 11.88% | –
Nc1nc2[nH]cnc2c(=S)[nH]1 [UM0141747:01, Thioguanine] | 3.135% | –
CC(NC(=O)c1ccccc1/N=C/c1c(O)ccc2ccccc12)c1ccccc1 (stereo not shown) [UM0141749:01, Sirtinol] | 11.59% | –
COc1ccccc1S(=O)(=O)Nc1ccc2c(c1)CN(C)C(=O)N2 [UM0141750:01, PFI-1 (PF-6405761)] | 3.719% | –
CCOC(=O)Nc1cc(-c2ccc(C)c(NS(C)(=O)=O)c2)nn2c(C)nnc12 [UM0141751:01, Bromosporine] | 9.043% | –
Cc1nc(C(=O)NCC(=O)O)c(O)c2ccc(Oc3ccccc3)cc12 [UM0141752:01, FG-4592 (ASP1517)] | 9.511% | –
O=C(O)CNC(=O)c1c(O)c2ccccc2n(Cc2ccccc2)c1=O [UM0141753:01, IOX2(Glycine)] | 18.92% | –
CCOC(=O)CCNc1cc(N2CCc3ccccc3CC2)nc(-c2ccccn2)n1 [UM0141754:01, GSK J4 HCl] | 11.33% | –
O=C(O)CCNc1cc(N2CCc3ccccc3CC2)nc(-c2ccccn2)n1 [UM0141755:01, GSK J1] | 1.8% | –
O=C1NC(=O)/C(=C/c2cccc(C(F)(F)F)c2)S1 [UM0141757:01, SMI-4a] | 63.38% | –
Cc1cc2c(C(=O)NC[C@H](C)c3ccccc3)c(O)c(O)cc2c(O)c1-c1c(C)cc2c(C(=O)NC[C@H](C)c3ccccc3)c(O)c(O)cc2c1O [UM0141759:01, Sabutoclax] | 12.84% | –
OCc1ccc(-c2ccc(-c3ccc(CO)s3)o2)s1 [UM0141761:01, RITA (NSC 652287)] | 10.18% | –
C/C(=N\NC(=S)N1CCC1)c1ccccn1 [UM0141763:01, NSC 319726] | 3.72% | –
O=C1CCC(N2C(=O)c3ccccc3C2=O)C(=O)N1 (stereo not shown) [UM0141766:01, Thalidomide] | -0.2984% | –
COCC[n+]1c2c(n(Cc3cnccn3)c1C)C(=O)c1ccccc1C2=O [UM0141767:01, YM155] | 0.9715% | –

SMILES | Inh (PKA) | Inh (PKA) (Inh (PKA))
CC(C)c1ccccc1Cc1cc(C(=O)Nc2ccc(S(=O)(=O)c3ccccc3C(C)(C)C)cc2)c(O)c(O)c1O [UM0141770:01, TW-37] | 2.732% | –
S=C(NCc1ccc2c(c1)OCO2)N1CCN(c2ncnc3c2oc2ccccc23)CC1 [UM0141771:01, Amuvatinib (MP-470, HPK 56)] | 7.726% | –
C[C@]12CC[C@H](O)CC1=CC[C@@H]1[C@@H]2CC[C@]2(C)C(c3cccnc3)=CC[C@@H]12 [UM0141772:01, Abiraterone] | 5.429% | –
O=C(Nc1ccncc1)c1cc([N+](=O)[O-])ccc1Cl [UM0141773:01, T0070907] | 6.091% | –
Cc1cccc(Nc2cc(Cl)nc(SCC(=O)O)n2)c1C [UM0141774:01, WY-14643 (Pirinixic Acid)] | 22.49% | –
Cc1cc(SCc2sc(-c3ccc(C(F)(F)F)c(F)c3)nc2C)ccc1OCC(=O)O [UM0141775:01, GW0742] | 20.87% | –
CC(C)c1nc(CN(C)C(=O)N[C@@H](CCN2CCOCC2)C(=O)N[C@H](CC[C@H](Cc2ccccc2)NC(=O)OCc2cncs2)Cc2ccccc2)cs1 [UM0141776:01, Cobicistat (GS-9350)] | 4.362% | –
CC(C)c1cc(C(C)C)c(CC(=O)NS(=O)(=O)Oc2c(C(C)C)cccc2C(C)C)c(C(C)C)c1 [UM0141778:01, Avasimibe] | 69.24% | –
O=C(Nc1c(Cl)cncc1Cl)c1ccc(OC(F)F)c(OCC2CC2)c1 [UM0141779:01, Roflumilast] | 21.52% | –
C[C@@H](c1ncncc1F)[C@](O)(Cn1cncn1)c1ccc(F)cc1F [UM0141780:01, Voriconazole] | 0.951% | –
CCCc1nn(C)c2c(=O)[nH]c(-c3cc(S(=O)(=O)N4CCN(C)CC4)ccc3OCC)nc12 [UM0141781:01, Sildenafil Citrate] | – | 4.187%
CCCc1nc(C)c2c(O)nc(-c3cc(S(=O)(=O)N4CCN(CC)CC4)ccc3OCC)nn12 [UM0141782:01, Vardenafil HCl Trihydrate] | 3.783% | –
CCc1ccc(CCOc2ccc(CC3SC(=O)NC3=O)cc2)nc1 (stereo not shown) [UM0141783:01, Pioglitazone HCl] | 13.53% | –
Cn1cc(-c2ccncc2)c(-c2ccc(OCc3ccc4ccccc4n3)cc2)n1 [UM0141784:01, PF-2545920] | 39.54% | –
COc1ccc([C@]2(C#N)CC[C@@H](C(=O)O)CC2)cc1OC1CCCC1 [UM0141787:01, Cilomilast] | 0.1397% | –
NCc1c[nH]c(=S)n1[C@H]1CCc2c(F)cc(F)cc2C1 [UM0141789:01, Nepicastat (SYN-117) HCl] | 5.542% | –
O=C(O)CCCCC(CCSCc1ccccc1)SCc1ccccc1 (stereo not shown) [UM0141790:01, CPI-613] | 31.69% | –
COc1c(C)c2c(c(O)c1C/C=C(\C)CCC(=O)OCCN1CCOCC1)C(=O)OC2 [UM0141793:01, Mycophenolate Mofetil] | 3.705% | –
O=C(NC[C@H]1CN(c2ccc(N3CCOCC3=O)cc2)C(=O)O1)c1ccc(Cl)s1 [UM0141794:01, Rivaroxaban] | 3.84% | –
Oc1cc(O)c(Cl)cn1 [UM0141798:01, Gimeracil] | 0.03154% | –
O=C(O)/C=C/c1ccc(Cn2ccnc2)cc1 [UM0141799:01, Ozagrel] | – | 1.747%

Continued, values first:

Inh (PKA) | Inh (PKA) (Inh (PKA)) | SMILES
5.771% | – | Cn1ncnc1[C@H]1c2n[nH]c(=O)c3cc(F)cc(c23)N[C@@H]1c1ccc(F)cc1 [UM0141735:01, BMN 673]
2.033% | – | CN(C)Cc1ccc(-c2nc3cccc4c3n2CCNC4=O)cc1 [UM0141737:01, AG-14361]
3.156% | – | CN(C)CC(=O)Nc1ccc2[nH]c(=O)c3ccccc3c2c1 [UM0141738:01, PJ34 hydrochloride]
5.639% | – | NC(=O)c1cccc2[nH]c(-c3ccc([C@@H]4CCCN4)cc3F)nc12 [UM0141739:01, A-966492]
1.514% | – | COC1CCN(C(=O)c2cc(Cc3n[nH]c(=O)c4ccccc34)ccc2F)CC1 [UM0141741:01, AZD2461]
32.18% | – | CN1CCC(CNc2ccc3ncc(-c4cccc(OC(F)(F)F)c4)n3n2)CC1 [UM0141756:01, SGI-1776 free base]
43.77% | – | COC1=CC(c2cc3ccccc3[nH]2)=N/C1=C\c1[nH]c(C)cc1C [UM0141758:01, Obatoclax mesylate (GX15-070)]
2.798% | – | Nc1cccc2c1C(=O)N(C1CCC(=O)NC1=O)C2=O (stereo not shown) [UM0141764:01, Pomalidomide (CC-4047)]
5.445% | – | CN1C(=O)C(Cc2c[nH]c3ccccc23)NC1=S (stereo not shown) [UM0141765:01, Necrostatin-1]
1.968% | – | COc1ccc(C2=N[C@@H](c3ccc(Cl)cc3)[C@@H](c3ccc(Cl)cc3)N2C(=O)N2CCNC(=O)C2)c(OC(C)C)c1 [UM0141768:01, Nutlin-3]
1.324% | – | CCOc1cc([C@@H](CS(C)(=O)=O)N2C(=O)c3cccc(NC(C)=O)c3C2=O)ccc1OC [UM0141777:01, Apremilast (CC-10004)]
0.0216% | – | CNC(=O)c1ccc2cc([C@@]3(O)CCn4cncc43)ccc2c1 [UM0141785:01, TAK-700 (Orteronel)]
-0.06153% | – | COc1ccc(C2CNC(=O)C2)cc1OC1CCCC1 (stereo not shown) [UM0141786:01, Rolipram]
3.135% | – | COc1ccc([C@H]2CNC(=O)C2)cc1OC1CCCC1 [UM0141786:02, S- (+)-Rolipram]
11.7% | – | COc1cccc(Nc2c(C(N)=O)cnc3c(C)cc(S(=O)(=O)c4cccc(C(=O)N(C)C)c4)cc23)c1 [UM0141788:01, GSK256066]
18.48% | – | COc1ccc(CNc2nc(N3CCC[C@H]3CO)ncc2C(=O)NCc2ncccn2)cc1Cl [UM0141791:01, Avanafil]
4.354% | – | Cc1ccccc1C(C(=O)NC1CCCCC1)N(C(=O)Cn1ccnc1C)c1cccc(F)c1 (stereo not shown) [UM0141795:01, AGI-5198]
10.77% | – | COc1ccc(-c2nc3cc(C4=NNC(=O)CC4C)ccc3[nH]2)cc1 (stereo not shown) [UM0141796:01, Pimobendan]
1.88% | – | COc1ccc(-n2nc(C(N)=O)c3c2C(=O)N(c2ccc(N4CCCCC4=O)cc2)CC3)cc1 [UM0141797:01, Apixaban]
